According to patent US11739098B2 (BRISTOL-MYERS SQUIBB COMPANY, priority 2017, dated 2023):

Tests used:
Format in all cases: cell-based
human TLR8 = molecular target: T1, human TLR8 (Homo sapiens, UniProt Q9NR97); assay: TLR8 inhibition reporter assay (HEK-Blue cells, SEAP reporter, R848 stimulation); conditions: HEK-Blue cells overexpressing human TLR8, SEAP reporter, R848 15.9 μM
T1 construct: host or cells: HEK-Blue cells (HEK293-derived reporter line)
T1 sequence (Q9NR97 27-1041): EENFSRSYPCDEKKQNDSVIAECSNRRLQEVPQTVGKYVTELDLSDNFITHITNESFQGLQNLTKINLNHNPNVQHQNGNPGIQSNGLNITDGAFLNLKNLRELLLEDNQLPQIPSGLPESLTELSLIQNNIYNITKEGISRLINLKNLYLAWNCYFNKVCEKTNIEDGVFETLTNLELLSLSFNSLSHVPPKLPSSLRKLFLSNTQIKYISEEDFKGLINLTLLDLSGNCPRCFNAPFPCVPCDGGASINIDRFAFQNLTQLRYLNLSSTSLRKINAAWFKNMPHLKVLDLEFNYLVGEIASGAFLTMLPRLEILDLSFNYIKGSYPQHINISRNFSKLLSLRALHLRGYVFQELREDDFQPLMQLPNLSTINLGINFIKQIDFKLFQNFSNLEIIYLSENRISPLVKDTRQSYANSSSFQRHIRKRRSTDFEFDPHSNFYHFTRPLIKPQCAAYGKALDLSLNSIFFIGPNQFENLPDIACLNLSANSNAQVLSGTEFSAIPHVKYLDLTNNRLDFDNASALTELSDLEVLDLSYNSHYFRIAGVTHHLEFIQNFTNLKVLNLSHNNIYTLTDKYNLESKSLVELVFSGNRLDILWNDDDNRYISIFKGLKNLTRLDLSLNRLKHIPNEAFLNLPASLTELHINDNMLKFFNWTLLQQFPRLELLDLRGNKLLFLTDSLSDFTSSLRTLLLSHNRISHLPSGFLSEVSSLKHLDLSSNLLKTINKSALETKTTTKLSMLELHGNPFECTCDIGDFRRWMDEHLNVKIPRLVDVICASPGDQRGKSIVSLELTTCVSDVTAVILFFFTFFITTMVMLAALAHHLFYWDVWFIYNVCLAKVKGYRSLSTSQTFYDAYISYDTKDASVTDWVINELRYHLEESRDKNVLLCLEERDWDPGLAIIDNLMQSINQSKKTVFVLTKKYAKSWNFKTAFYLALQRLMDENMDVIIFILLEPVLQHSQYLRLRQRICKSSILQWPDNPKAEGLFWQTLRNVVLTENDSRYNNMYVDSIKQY
Description: (§1) TLR7/8/9 Inhibition Reporter Assays
(§2) HEK-Blue™-cells (Invivogen) overexpressing human TLR7, TLR8 or TLR9 receptors were used for screening inhibitors of these receptors using an inducible SEAP (secreted embryonic alkaline phosphatase) reporter gene under the control of the IFN-β minimal promoter fused to five NF-κB and AP-1-binding sites. Briefly, cells are seeded into Greiner 384 well plates (15000 cells per well for TLR7, 20,000 for TLR8 and 25,000 for TLR9) and then treated with test compounds in DMSO to yield a final dose response concentration range of 0.05 nM-50 μM. After a 30 minute compound pre-treatment at room temperature, the cells are then stimulated with a TLR7 ligand (gardiquimod at a final concentration of 7.5 μM), TLR8 ligand (R848 at a final concentration of 15.9 μM) or TLR9 ligand (ODN2006 at a final concentration of 5 nM) to activate NF-κB and AP-1 which induce the production of SLAP After a 22 hour incubation at […], SLAP levels are determined with the addition of HLK-Blue™ Detection reagent (Invivogen), a cell culture medium that allows for detection of SLAP, according to manufacturer's specifications. The percent inhibition is determined as the […] in the HEK-Blue signal present in wells treated with agonist plus DMSO alone compared to wells treated with a known inhibitor.

human TLR7 = molecular target: T2, human TLR7 (Homo sapiens, UniProt Q9NYK1); assay: TLR7 inhibition reporter assay (HEK-Blue cells, SEAP reporter, gardiquimod stimulation); conditions: HEK-Blue cells overexpressing human TLR7, SEAP reporter, gardiquimod 7.5 μM
T2 construct: host or cells: HEK-Blue cells (HEK293-derived reporter line)
T2 sequence (Q9NYK1 27-1049): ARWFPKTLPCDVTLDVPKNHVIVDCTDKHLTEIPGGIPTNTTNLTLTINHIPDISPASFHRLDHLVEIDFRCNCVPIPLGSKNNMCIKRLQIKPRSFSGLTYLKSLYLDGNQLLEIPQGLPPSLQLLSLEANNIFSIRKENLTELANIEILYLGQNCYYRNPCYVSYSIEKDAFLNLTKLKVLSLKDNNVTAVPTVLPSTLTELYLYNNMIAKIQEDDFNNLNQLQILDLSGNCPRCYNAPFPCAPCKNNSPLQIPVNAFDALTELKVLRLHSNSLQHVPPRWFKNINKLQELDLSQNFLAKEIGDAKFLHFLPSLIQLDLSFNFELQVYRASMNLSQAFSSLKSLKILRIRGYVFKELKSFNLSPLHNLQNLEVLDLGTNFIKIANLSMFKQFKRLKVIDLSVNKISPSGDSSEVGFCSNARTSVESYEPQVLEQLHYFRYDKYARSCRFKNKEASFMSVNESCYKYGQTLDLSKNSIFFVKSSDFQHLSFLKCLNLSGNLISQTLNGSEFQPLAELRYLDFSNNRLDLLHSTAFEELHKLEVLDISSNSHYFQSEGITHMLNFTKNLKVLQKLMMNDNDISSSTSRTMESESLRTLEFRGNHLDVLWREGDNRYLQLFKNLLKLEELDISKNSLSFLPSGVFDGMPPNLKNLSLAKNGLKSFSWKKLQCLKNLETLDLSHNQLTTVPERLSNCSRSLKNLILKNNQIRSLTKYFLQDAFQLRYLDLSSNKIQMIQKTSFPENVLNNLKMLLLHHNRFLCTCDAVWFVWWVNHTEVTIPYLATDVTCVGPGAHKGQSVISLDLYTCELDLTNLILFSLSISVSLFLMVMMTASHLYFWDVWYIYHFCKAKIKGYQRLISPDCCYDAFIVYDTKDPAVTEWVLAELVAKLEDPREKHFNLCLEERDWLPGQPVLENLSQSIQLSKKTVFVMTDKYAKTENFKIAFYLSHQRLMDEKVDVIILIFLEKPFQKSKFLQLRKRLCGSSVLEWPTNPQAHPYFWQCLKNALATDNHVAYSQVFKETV
Description: as §1, §2

human TLR9 = molecular target: T3, human TLR9 (Homo sapiens, UniProt Q9NR96); assay: TLR9 inhibition reporter assay (HEK-Blue cells, SEAP reporter, ODN2006 stimulation); conditions: HEK-Blue cells overexpressing human TLR9, SEAP reporter, ODN2006 5 nM
T3 construct: host or cells: HEK-Blue cells (HEK293-derived reporter line)
T3 sequence (Q9NR96 26-1032): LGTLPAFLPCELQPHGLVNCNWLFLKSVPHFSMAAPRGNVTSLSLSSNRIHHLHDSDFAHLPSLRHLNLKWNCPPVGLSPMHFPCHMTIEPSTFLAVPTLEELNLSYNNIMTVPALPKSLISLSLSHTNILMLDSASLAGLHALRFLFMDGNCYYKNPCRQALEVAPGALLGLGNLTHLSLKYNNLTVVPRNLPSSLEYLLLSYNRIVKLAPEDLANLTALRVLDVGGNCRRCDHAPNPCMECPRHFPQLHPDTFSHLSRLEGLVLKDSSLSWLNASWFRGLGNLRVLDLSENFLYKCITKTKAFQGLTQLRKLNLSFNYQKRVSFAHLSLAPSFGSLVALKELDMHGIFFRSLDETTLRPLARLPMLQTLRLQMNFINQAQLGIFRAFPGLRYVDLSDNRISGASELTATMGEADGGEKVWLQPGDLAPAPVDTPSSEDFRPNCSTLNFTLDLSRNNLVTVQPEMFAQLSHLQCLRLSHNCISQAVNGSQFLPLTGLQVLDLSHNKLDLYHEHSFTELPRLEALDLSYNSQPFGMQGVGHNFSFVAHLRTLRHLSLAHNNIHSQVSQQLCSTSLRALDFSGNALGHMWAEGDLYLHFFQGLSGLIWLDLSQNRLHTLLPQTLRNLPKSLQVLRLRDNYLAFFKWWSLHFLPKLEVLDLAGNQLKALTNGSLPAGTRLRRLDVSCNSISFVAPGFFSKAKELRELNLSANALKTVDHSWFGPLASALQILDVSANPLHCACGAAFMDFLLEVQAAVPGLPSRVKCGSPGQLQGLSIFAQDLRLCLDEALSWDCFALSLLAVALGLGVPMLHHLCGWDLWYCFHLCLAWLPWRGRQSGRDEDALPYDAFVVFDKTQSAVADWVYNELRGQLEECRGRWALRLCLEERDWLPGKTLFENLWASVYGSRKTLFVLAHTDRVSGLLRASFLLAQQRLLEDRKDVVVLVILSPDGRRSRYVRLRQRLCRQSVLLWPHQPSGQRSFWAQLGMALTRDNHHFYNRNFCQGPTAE
Description: as §1, §2

Row | Compound | IC50 (human TLR8) [µM] | IC50 (human TLR7) [µM] | IC50 (human TLR9) [µM]
1 | Cc1cc(-c2[nH]c3ccc(C4CCN(C(=O)CN5CCOCC5)CC4)cc3c2C(C)C)cn2nnnc12 [Example 476, 1-(4-(3-isopropyl-2-(8-methyltetrazolo[1,5-a]pyridin-6-yl)-1H-indol-5-yl)piperidin-1-yl)-2-morpholinoethan-1-one] | < 0.1 | < 0.1 | 1 to 50
2 | CNCCN1CCC(c2ccc3[nH]c(-c4ccc5nc(C)cn5c4)c(C(C)C)c3c2)CC1 [Example 676, 2-(4-(3-isopropyl-2-(2-methylimidazo[1,2-a]pyridin-6-yl)-1H-indol-5-yl)piperidin-1-yl)-N-methylethan-1-amine] | 0.1 to 1 | < 0.1 | 0.1 to 1
3 | Cc1cc(-c2[nH]c3ccc(C4CCNCC4)cc3c2C(C)C)cc2ncc(O)nc12 [Example 87, 6-(3-isopropyl-5-(piperidin-4-yl)-1H-indol-2-yl)-8-methylquinoxalin-2-ol] | < 0.1 | < 0.1 | 0.1 to 1
4 | CC(C)c1c(-c2ccc(C#N)c3ncccc23)[nH]c2ccc(C3CCN(CC(N)=O)CC3)cc12 [Example 369, 2-(4-(2-(8-cyanoquinolin-5-yl)-3-isopropyl-1H-indol-5-yl)piperidin-1-yl)acetamide] | < 0.1 | < 0.1 | 1 to 50
5 | Cc1cc(-c2[nH]c3ccc(C4CCN(C5CCS(=O)(=O)CC5)CC4)cc3c2C(C)C)cn2nnnc12 [Example 788, 4-(4-(3-isopropyl-2-(8-methyltetrazolo[1,5-a]pyridin-6-yl)-1H-indol-5-yl)piperidin-1-yl)tetrahydro-2H-thiopyran 1,1-dioxide] | < 0.1 | < 0.1 | 1 to 50
6 | CC(C)c1c(-c2cccn3ncnc23)[nH]c2ccc(C3CCNCC3)cc12 [Example 196, 8-(3-isopropyl-5-(piperidin-4-yl)-1H-indol-2-yl)-[1,2,4]triazolo[1,5-a]pyridine] | < 0.1 | < 0.1 | 1 to 50
7 | CC(C)c1c(-c2ccnc3[nH]ncc23)[nH]c2ccc(C3CCN(Cc4ccccn4)CC3)cc12 [Example 866, 4-(3-isopropyl-5-(1-(pyridin-2-ylmethyl)piperidin-4-yl)-1H-indol-2-yl)-1H-pyrazolo[3,4-b]pyridine] | < 0.1 | < 0.1 | 1 to 50
8 | Cc1nc2cc(-c3[nH]c4ccc(C5CCN(C(=O)[C@@H]6C[C@@H](O)CN6)CC5)cc4c3C(C)C)ccn2n1 [Example 540, ((2S,4R)-4-hydroxypyrrolidin-2-yl)(4-(3-isopropyl-2-(2-methyl-[1,2,4]triazolo[1,5-a]pyridin-7-yl)-1H-indol-5-yl)piperidin-1-yl) methanone] | 1 to 50 | < 0.1 | 1 to 50
9 | Cc1cc(-c2[nH]c3ccc(C4CCN(C(=O)CN(C)C)CC4)cc3c2C(C)C)c(C)n2nnnc12 [Example 469, 2-(dimethylamino)-1-(4-(2-(5,8-dimethyltetrazolo[1,5-a]pyridin-6-yl)-3-isopropyl-1H-indol-5-yl)piperidin-1-yl)ethan-1-one] | < 0.1 | < 0.1 | 1 to 50
10 | CCc1c(-c2cccc3c2cnn3C)[nH]c2ccc(C3CCN(C(=O)CN(C)C)CC3)cc12 [Example 520, 2-(dimethylamino)-1-(4-(3-ethyl-2-(1-methyl-1H-indazol-4-yl)-1H-indol-5-yl)piperidin-1-yl)ethan-1-one] | > 50 | > 50 | 1 to 50
11 | Cc1cc(-c2[nH]c3ccc(C4CCN(Cc5ccn(C)n5)CC4)cc3c2C(C)C)cn2nncc12 [Example 882, 6-(3-isopropyl-5-(1-((1-methyl-1H-pyrazol-3-yl)methyl)piperidin-4-yl)-1H-indol-2-yl)-4-methyl-[1,2,3]triazolo[1,5-a]pyridine] | 0.1 to 1 | 1 to 50 | 1 to 50
12 | Cc1cc(-c2[nH]c3ccc(C4CCN(C(=O)CN(C)C)CC4)cc3c2C(C)C)cc2ncnn12 [Example 536, 2-(dimethylamino)-1-(4-(3-isopropyl-2-(5-methyl-[1,2,4]triazolo[1,5-a]pyridin-7-yl)-1H-indol-5-yl)piperidin-1-yl)ethan-1-one] | < 0.1 | < 0.1 | 1 to 50
